Data taken from patent US9782522B2, “Compositions and methods for treating and preventing neointimal stenosis” (Yale University, priority 2011, dated 2017).

Legend:
HUAEC = test: qRT-PCR mRNA expression of TGFβ signaling and Endo-MT markers in endothelial cells; format: cell-based, human; details: FRS2 knockdown EC; 10 μM
Description: Human 293T T17 cells (ATCC CRL-11268) were maintained in Dulbecco's modified Eagle's medium (Gibco) with 10% fetal bovine serum (Invitrogen) and penicillinstreptomycin (Gibco). Primary human mammary epithelial cells (HuMEC, Invitrogen), were maintained in HuMEC basal serum free medium with HuMEC supplement (Invitrogen 12754-016) and bovine pituitary extract (Invitrogen 13028-014). Human foreskin cells (ATCC CRL-1079Sk) were maintained in Minimum Essential Medium (ATCC) with 10% fetal bovine serum (Hyclone), β-mercaptoethanol (Sigma), and penicillin-streptomycin (Gibco). Primary human atrial cells (passage 3-5; gift from Y. Qyang, Yale University School of Medicine) were maintained in Dulbecco's modified Eagle's medium (Gibco) with 10% fetal bovine serum (Invitrogen), L-glutamine (Gibco), Sodium pyruvate (Gibco), Non-essential amino acid (Gibco), and penicillin-streptomycin (Gibco). HUAEC (human umbilical artery endothelial cells, passage 5-10, Lonza) were cultured in EBM-2 supplemented with EGM-2-MV bullet kit (Lonza). HUVEC (human umbilical vein endothelial cells, passage 3-7, Yale Vascular Biology and Therapeutics) were cultured in M199 with ECGS, supplemented with 20% FBS (Sigma), L-glutamine (Gibco), and penicillin-streptomycin (Gibco). Culture vessels were coated with 0.1% gelatin (Sigma) for 30 min at 37° C. immediately prior to cell seeding. Primary mouse endothelial cells were isolated from the heart using rat anti-mouse CD31 antibody and Dynabeads (Invitrogen) as previously described (Partovian C, et al. Mol Cell. 32(1):140 (2008)).
RNA was isolated using RNeasy® plus Mini Kit (Qiagen) and converted to cDNA using iScript™ cDNA synthesis kit (Bio-Rad). Quantitative real-time PCR (qRT-PCR) was performed using Bio-Rad […] (Bio-Rad) by mixing equal amount of eDNAs, iQ™ SYBR® Green Supermix (Bio-Rad) and gene specific primers. All reactions were done in a 25 μl reaction volume in duplicate. Data were normalized to endogenous β-actin. Values are expressed as fold change in comparison to control. Mouse TGFβ gene expression was quantified via qRT-PCR with TaqMan® Gene Expression Assays (Mm00441726_m1; Applied Biosystems) and HPRT (Mm00441258_1; Applied Biosystems) as endogenous control followed the manufacturer's recommendation. Quantitative PCR analysis of 84 TGFβ and epithelial to mesenchymal transition (EMT) related genes were performed using Human TGFβ BMP signaling pathway (PAHS-035D, QIAGEN) and Human Epithelial to Mesenchymal Transition (PAHS-090D, QIAGEN) RT^2 Profiler™ PCR Arrays following the manufacturer's protocol. RT^2 Profiler™ PCR arrays were run on a Bio-Rad CFX96 machine (Bio-Rad). Duplicate arrays were run per condition for control and FRS2 knockdown human umbilical arterial endothelial cells (HUAEC). Data analysis was performed using the manufacturer's integrated web-based software package for the PCR Array System using cycle threshold (Ct)-based fold-change calculations.
Recombinant human FGF2 (R&D) and TGFβ1 (Peprotech) were reconstituted in 0.1% BSA/PBS. U0126 (Sigma), a MEK inhibitor, was reconstituted in DMSO and used at a final concentration of 10 μM. SB431542 (Sigma), a TGFBR1 kinase inhibitor, was reconstituted in DMSO and used at a final concentration of 10 μM in cell culture. Actinomycin D (Sigma), a DNA transcription suppressor, was reconstituted in acetone and used at a final concentration of 10 μg/ml in cell culture. […]

[1] = SB-431542 release from microparticles and scaffolds; format: physicochemical
Protocol: Total encapsulation was approximated as the amount of SB-431542 released over a 14-day period. Percent encapsulation efficiency was calculated as total encapsulation divided by maximum theoretical encapsulation. 5 mg of avidin-coated PLGA microparticles containing SB-431542, PGA-P(CL/LA) trimmed scaffolds and treated with pLLB and SB-431542-eluting microparticles as above, and SB-431542-eluting PGA-P(CL/LA) trimmed scaffolds were incubated with PBS in triplicate on a rotary shaker at 37° C. Samples were removed at specific time points and centrifuged at 13200 RPM for 10 minutes. 300 μl of supernatant was drawn and replaced with 300 μl PBS. Concentration of SB-431542 in supernatant diluted with 600 μl PBS was determined by spectrophotometry at 320 nm.

3T3 human fibroblasts = test: Bioactivity of encapsulated SB-431542 (phosphorylated SMAD-2 after TGF-β1); format: cell-based
Protocol: SB-431542 was released into 1 ml PBS from 10 mg avidin-coated PLGA microparticles and one untrimmed SB-431542-eluting PGA-P(CL/LA) scaffold in 2 ml microcentrifuge tubes at 37° C. At 48 hours, samples were centrifuged at 13200 RPM for 10 minutes, supernatants were collected and analyzed by spectrophotometry at 320 nm. SB-431542 concentrations were adjusted to 10 μM by dilution with PBS. 3T3 human fibroblasts were plated at 500,000/well and stimulated at confluence with 700 ul 10 μM SB-431542 in PBS eluted from particles or scaffolds, a stock solution of 10 or 1 μM SB-431542 containing <1% DMSO, or PBS. After 30 minutes at 37° C., cells were washed and stimulated with 200 ul 2 ng/ml recombinant human TGF-β1 (BD Biosciences) for 1 hour at 37 C. Cells were lysed and protein samples were separated by gel electrophoresis with a 12% polyacrylamide gel and probed with primary antibody to phosphorylated SMAD-2 (ser426/ser428, Cell Signaling Technology) and secondary goat anti-rabbit IgG (Cell Signaling Technology). The gel was stripped and reprobed with anti-SMAD2/3 as a loading control.

[2] = inhibitor added to the solvent used to make the grafts

NC(=O)c1ccc(-c2nc(-c3ccc4c(c3)OCO4)c(-c3ccccn3)[nH]2)cc1 [SB431542, 4-[4-(1,3-Benzodioxol-5-yl)-5-(2-pyridinyl)-1H-imidazol-2-yl]-benzamide]
SM-calponin expression (HUAEC): significantly decreased | fibronectin expression (HUAEC): significantly decreased | vimentin expression (HUAEC): significantly decreased | Release of the drug ([1]; PLGA microparticle system tethered to TEVG scaffold, full 2-week time course): steady release | Release profile [1, 2]: favorable release profile | Biologic activity of the released drug (3T3 human fibroblasts; [2]): continued biologic activity | Biologic activity of the released drug (3T3 human fibroblasts; microparticle system): maintains its biologic activity
